From patent publication US10253039B2, “Inhibitors of bacterial DNA gyrase with efficacy against gram-negative bacteria” (priority 2014, dated 2019)
In brackets after ≈: the same amount, converted by molar mass.

test system: Streptococcus agalactiae; assay: MIC, 20-strain panel; type: cell-based; details: not given
Protocol: (§1) A microdilution method in 96-well plates was used and the MIC protocol established by the Clinical Laboratory Standards Institute was followed. From a growing subculture, a 1:10000 inoculum of each strain in Luria-Bertani media was prepared and aliquoted 100 μL in 4 columns of wells, except for the top row wells, which contained 200 μL of inoculum. A solution of gyramide C2 was aliquoted into 3 of the wells containing 200 μL and DMSO was added to the 4th well. The liquid in each of wells was mixed with a multi-channel pipet and 100 μL was transferred to the next well and mixed. The 2-fold dilution was continued down the 96-well plate until 100 μL was left, which was discarded. The plates were incubated at 37° C. with shaking for 16-18 hours. The MIC was determined as the lowest concentration that inhibited growth and had no turbidity by visual inspection.
(§2) Minimum inhibitory concentrations of various gyramide compounds against 20 strains of bacteria were determined using the procedure described above.

Structure (SMILES) | MIC
N#Cc1cccc(S(=O)(=O)N[C@@H]2CCN(Cc3ccc(OC4CCCC4)cc3)C2)c1 [Compound 40] | > 8 µg/mL
O=S(=O)(N[C@@H]1CCN(Cc2ccc(OC(F)(F)F)cc2)C1)c1cccc(C(F)(F)F)c1 [Compound 6] | > 8 µg/mL
O=S(=O)(N[C@@H]1CCN(Cc2ccc(OC3CCC3)cc2)C1)c1cccc(OC(F)(F)F)c1 [Compound 177] | > 8 µg/mL
CC(C)Oc1ccc(CN2CC[C@@H](NS(=O)(=O)c3cccc4cccnc34)C2)cc1 [Compound 84] | > 8 µg/mL
N#Cc1cccc(S(=O)(=O)N[C@@H]2CCN(Cc3ccc(OCC(F)F)cc3)C2)c1 [Compound 8] | > 8 µg/mL

test system: Shigella flexneri; assay: MIC, 20-strain panel; type: cell-based; details: not given
Protocol: as §1, §2

Structure (SMILES) | MIC
O=S(=O)(N[C@@H]1CCN(Cc2ccc(OC3CCC3)cc2)C1)c1cccc(OC(F)(F)F)c1 [Compound 177] | > 8 µg/mL

same assay, conditions: G: Shigella flexneri

Structure (SMILES) | MIC
N#Cc1cccc(S(=O)(=O)N[C@@H]2CCN(Cc3ccc(OC4CCCC4)cc3)C2)c1 [Compound 40] | > 8 µg/mL
O=S(=O)(N[C@@H]1CCN(Cc2ccc(OC(F)(F)F)cc2)C1)c1cccc(C(F)(F)F)c1 [Compound 6] | > 8 µg/mL
CC(C)Oc1ccc(CN2CC[C@@H](NS(=O)(=O)c3cccc4cccnc34)C2)cc1 [Compound 84] | > 8 µg/mL
N#Cc1cccc(S(=O)(=O)N[C@@H]2CCN(Cc3ccc(OCC(F)F)cc3)C2)c1 [Compound 8] | > 8 µg/mL

test system: Staphylococcus epidermidis; assay: MIC, 20-strain panel; type: cell-based; details: not given
Protocol: as §1, §2

Structure (SMILES) | MIC
N#Cc1cccc(S(=O)(=O)N[C@@H]2CCN(Cc3ccc(OC4CCCC4)cc3)C2)c1 [Compound 40] | > 8 µg/mL
O=S(=O)(N[C@@H]1CCN(Cc2ccc(OC(F)(F)F)cc2)C1)c1cccc(C(F)(F)F)c1 [Compound 6] | > 8 µg/mL
O=S(=O)(N[C@@H]1CCN(Cc2ccc(OC3CCC3)cc2)C1)c1cccc(OC(F)(F)F)c1 [Compound 177] | > 8 µg/mL
CC(C)Oc1ccc(CN2CC[C@@H](NS(=O)(=O)c3cccc4cccnc34)C2)cc1 [Compound 84] | > 8 µg/mL
N#Cc1cccc(S(=O)(=O)N[C@@H]2CCN(Cc3ccc(OCC(F)F)cc3)C2)c1 [Compound 8] | > 8 µg/mL

test system: E. coli JW5503 (deltolC); assay: MIC, 20-strain panel; type: cell-based; details: Escherichia coli, C: E. coli JW5503 (deltolC)
Protocol: as §1, §2

Structure (SMILES) | MIC
N#Cc1cccc(S(=O)(=O)N[C@@H]2CCN(Cc3ccc(OC4CCCC4)cc3)C2)c1 [Compound 40] | 0.5 µg/mL (≈ 1.17 µM)
O=S(=O)(N[C@@H]1CCN(Cc2ccc(OC(F)(F)F)cc2)C1)c1cccc(C(F)(F)F)c1 [Compound 6] | 4 µg/mL (≈ 8.54 µM)
CC(C)Oc1ccc(CN2CC[C@@H](NS(=O)(=O)c3cccc4cccnc34)C2)cc1 [Compound 84] | 1 µg/mL (≈ 2.35 µM)
N#Cc1cccc(S(=O)(=O)N[C@@H]2CCN(Cc3ccc(OCC(F)F)cc3)C2)c1 [Compound 8] | 2 µg/mL (≈ 4.75 µM)

same assay, conditions: Escherichia coli, E. coli JW5503 (deltolC)

Structure (SMILES) | MIC
O=S(=O)(N[C@@H]1CCN(Cc2ccc(OC3CCC3)cc2)C1)c1cccc(OC(F)(F)F)c1 [Compound 177] | 2 µg/mL (≈ 4.25 µM)

test system: Streptococcus pyogenes; assay: MIC, 20-strain panel; type: cell-based; details: not given
Protocol: as §1, §2

Structure (SMILES) | MIC
N#Cc1cccc(S(=O)(=O)N[C@@H]2CCN(Cc3ccc(OC4CCCC4)cc3)C2)c1 [Compound 40] | > 8 µg/mL
O=S(=O)(N[C@@H]1CCN(Cc2ccc(OC(F)(F)F)cc2)C1)c1cccc(C(F)(F)F)c1 [Compound 6] | > 8 µg/mL
O=S(=O)(N[C@@H]1CCN(Cc2ccc(OC3CCC3)cc2)C1)c1cccc(OC(F)(F)F)c1 [Compound 177] | > 8 µg/mL
CC(C)Oc1ccc(CN2CC[C@@H](NS(=O)(=O)c3cccc4cccnc34)C2)cc1 [Compound 84] | > 8 µg/mL
N#Cc1cccc(S(=O)(=O)N[C@@H]2CCN(Cc3ccc(OCC(F)F)cc3)C2)c1 [Compound 8] | > 8 µg/mL

test system: Staphylococcus aureus subsp. aureus; assay: MIC, 20-strain panel; type: cell-based; details: H: Staphylococcus aureus subsp. aureus, read-out: MIC
Protocol: as §1, §2

Structure (SMILES) | MIC
N#Cc1cccc(S(=O)(=O)N[C@@H]2CCN(Cc3ccc(OC4CCCC4)cc3)C2)c1 [Compound 40] | > 8 µg/mL
O=S(=O)(N[C@@H]1CCN(Cc2ccc(OC(F)(F)F)cc2)C1)c1cccc(C(F)(F)F)c1 [Compound 6] | > 8 µg/mL
CC(C)Oc1ccc(CN2CC[C@@H](NS(=O)(=O)c3cccc4cccnc34)C2)cc1 [Compound 84] | > 8 µg/mL
N#Cc1cccc(S(=O)(=O)N[C@@H]2CCN(Cc3ccc(OCC(F)F)cc3)C2)c1 [Compound 8] | > 8 µg/mL

same assay, conditions: Staphylococcus aureus subsp. aureus, read-out: MIC

Structure (SMILES) | MIC
O=S(=O)(N[C@@H]1CCN(Cc2ccc(OC3CCC3)cc2)C1)c1cccc(OC(F)(F)F)c1 [Compound 177] | > 8 µg/mL

test system: Klebsiella pneumoniae subsp. pneumoniae; assay: MIC, 20-strain panel; type: cell-based; details: E: Klebsiella pneumoniae subsp. pneumoniae
Protocol: as §1, §2

Structure (SMILES) | MIC
N#Cc1cccc(S(=O)(=O)N[C@@H]2CCN(Cc3ccc(OC4CCCC4)cc3)C2)c1 [Compound 40] | > 8 µg/mL
O=S(=O)(N[C@@H]1CCN(Cc2ccc(OC(F)(F)F)cc2)C1)c1cccc(C(F)(F)F)c1 [Compound 6] | > 8 µg/mL
CC(C)Oc1ccc(CN2CC[C@@H](NS(=O)(=O)c3cccc4cccnc34)C2)cc1 [Compound 84] | > 8 µg/mL
N#Cc1cccc(S(=O)(=O)N[C@@H]2CCN(Cc3ccc(OCC(F)F)cc3)C2)c1 [Compound 8] | > 8 µg/mL

same assay, conditions: Klebsiella pneumoniae subsp. pneumoniae

Structure (SMILES) | MIC
O=S(=O)(N[C@@H]1CCN(Cc2ccc(OC3CCC3)cc2)C1)c1cccc(OC(F)(F)F)c1 [Compound 177] | > 8 µg/mL

test system: Salmonella enterica subsp. enterica typhimurium; assay: MIC, 20-strain panel; type: cell-based; details: F: Salmonella enterica subsp. enterica Typhimurium
Protocol: as §1, §2

Structure (SMILES) | MIC
N#Cc1cccc(S(=O)(=O)N[C@@H]2CCN(Cc3ccc(OC4CCCC4)cc3)C2)c1 [Compound 40] | 4 µg/mL (≈ 9.4 µM)
O=S(=O)(N[C@@H]1CCN(Cc2ccc(OC(F)(F)F)cc2)C1)c1cccc(C(F)(F)F)c1 [Compound 6] | > 8 µg/mL
CC(C)Oc1ccc(CN2CC[C@@H](NS(=O)(=O)c3cccc4cccnc34)C2)cc1 [Compound 84] | > 8 µg/mL
N#Cc1cccc(S(=O)(=O)N[C@@H]2CCN(Cc3ccc(OCC(F)F)cc3)C2)c1 [Compound 8] | 8 µg/mL (≈ 19 µM)

same assay, conditions: Salmonella enterica subsp. enterica Typhimurium

Structure (SMILES) | MIC
O=S(=O)(N[C@@H]1CCN(Cc2ccc(OC3CCC3)cc2)C1)c1cccc(OC(F)(F)F)c1 [Compound 177] | > 8 µg/mL

test system: E. coli MG1655; assay: MIC, 20-strain panel; type: cell-based; details: Escherichia coli, MG1655, A: E. coli MG1655; read-out: MIC
Protocol: as §1, §2

Structure (SMILES) | MIC
N#Cc1cccc(S(=O)(=O)N[C@@H]2CCN(Cc3ccc(OC4CCCC4)cc3)C2)c1 [Compound 40] | > 8 µg/mL
O=S(=O)(N[C@@H]1CCN(Cc2ccc(OC(F)(F)F)cc2)C1)c1cccc(C(F)(F)F)c1 [Compound 6] | > 8 µg/mL
CC(C)Oc1ccc(CN2CC[C@@H](NS(=O)(=O)c3cccc4cccnc34)C2)cc1 [Compound 84] | > 8 µg/mL
N#Cc1cccc(S(=O)(=O)N[C@@H]2CCN(Cc3ccc(OCC(F)F)cc3)C2)c1 [Compound 8] | > 8 µg/mL

same assay, conditions: Escherichia coli, MG1655, E. coli MG1655; read-out: MIC

Structure (SMILES) | MIC
O=S(=O)(N[C@@H]1CCN(Cc2ccc(OC3CCC3)cc2)C1)c1cccc(OC(F)(F)F)c1 [Compound 177] | > 8 µg/mL

test system: Staphylococcus saprophyticus subsp. saprophyticus; assay: MIC, 20-strain panel; type: cell-based; details: not given
Protocol: as §1, §2

Structure (SMILES) | MIC
N#Cc1cccc(S(=O)(=O)N[C@@H]2CCN(Cc3ccc(OC4CCCC4)cc3)C2)c1 [Compound 40] | > 8 µg/mL
O=S(=O)(N[C@@H]1CCN(Cc2ccc(OC(F)(F)F)cc2)C1)c1cccc(C(F)(F)F)c1 [Compound 6] | > 8 µg/mL
O=S(=O)(N[C@@H]1CCN(Cc2ccc(OC3CCC3)cc2)C1)c1cccc(OC(F)(F)F)c1 [Compound 177] | > 8 µg/mL
CC(C)Oc1ccc(CN2CC[C@@H](NS(=O)(=O)c3cccc4cccnc34)C2)cc1 [Compound 84] | > 8 µg/mL
N#Cc1cccc(S(=O)(=O)N[C@@H]2CCN(Cc3ccc(OCC(F)F)cc3)C2)c1 [Compound 8] | > 8 µg/mL

test system: E. coli BW25113; assay: MIC, microdilution in 96-well plates; type: cell-based; details: Escherichia coli, BW25113, B: E. coli BW25113; read-out: MIC
Procedure, shortened: (§3)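 CLSI microdilution, LB, 1:10000 inoculum of actively growing culture; 2-fold dilution series in triplicate, DMSO control lane; 37° C., shaking, 16-18 h; endpoint = no visible growth.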

Structure (SMILES) | MIC
N#Cc1cccc(S(=O)(=O)N[C@@H]2CCN(Cc3ccc(OC4CCCC4)cc3)C2)c1 [Compound 40] | > 8 µg/mL
O=S(=O)(N[C@@H]1CCN(Cc2ccc(OC(F)(F)F)cc2)C1)c1cccc(C(F)(F)F)c1 [Compound 6] | > 8 µg/mL
CC(C)Oc1ccc(CN2CC[C@@H](NS(=O)(=O)c3cccc4cccnc34)C2)cc1 [Compound 84] | > 8 µg/mL
N#Cc1cccc(S(=O)(=O)N[C@@H]2CCN(Cc3ccc(OCC(F)F)cc3)C2)c1 [Compound 8] | > 8 µg/mL

same assay, conditions: Escherichia coli, BW25113, E. coli BW25113; read-out: MIC

Structure (SMILES) | MIC
O=S(=O)(N[C@@H]1CCN(Cc2ccc(OC3CCC3)cc2)C1)c1cccc(OC(F)(F)F)c1 [Compound 177] | > 8 µg/mL

test system: Edwardsiella tarda; assay: MIC, microdilution in 96-well plates; type: cell-based; details: not given
Procedure, shortened: as §3

Structure (SMILES) | MIC
O=S(=O)(N[C@@H]1CCN(Cc2ccc(OC3CCC3)cc2)C1)c1cccc(OC(F)(F)F)c1 [Compound 177] | > 8 µg/mL

same assay, conditions: D: Edwardsiella tarda

Structure (SMILES) | MIC
N#Cc1cccc(S(=O)(=O)N[C@@H]2CCN(Cc3ccc(OC4CCCC4)cc3)C2)c1 [Compound 40] | > 8 µg/mL
O=S(=O)(N[C@@H]1CCN(Cc2ccc(OC(F)(F)F)cc2)C1)c1cccc(C(F)(F)F)c1 [Compound 6] | > 8 µg/mL
CC(C)Oc1ccc(CN2CC[C@@H](NS(=O)(=O)c3cccc4cccnc34)C2)cc1 [Compound 84] | > 8 µg/mL
N#Cc1cccc(S(=O)(=O)N[C@@H]2CCN(Cc3ccc(OCC(F)F)cc3)C2)c1 [Compound 8] | > 8 µg/mL
